Experimental data reported in patent US11446300B2 (Alexion Pharmaceuticals, Inc., priority 2015, dated 2022).
Like-named read-outs stand apart in the source and are kept apart here.

Assays:
DLCL2 = assay: DLBCL cell line viability, CellTiter Glo, ten-point curve; type: cell-based; conditions: read-out: IC50 of Kinase Inhibitor in Cell Titer Glo Assay
TOLEDO = assay: as above; type: cell-based
[1] = Phase I study, pharmacokinetics following oral dosing; type: in vivo, human; conditions: for Cmax / AUC / half-life / steady-state Cmin to Cmax range: human, plasma
Procedure: A first-in-human study of cerdulatinib in patients with relapsed/refractory CLL/SLL or B-cell non-Hodgkin's lymphoma (NHL) was carried out. […] Patients received a single dose on day 1 for 72 hour PK evaluation. Continuous dosing was initiated on day 4. […] Median age was 67 years (range 23-85) and median prior therapies (tx) was 3 (range 1-8).
(§1) Pharmacokinetics (“PK”), pharmacodynamics (“PD”), and safety were monitored. Response was assessed by standard criteria. The level of inhibition of SYK and JAK was determined using a variety of whole blood assays measuring signaling via receptors for the B-cell antigen, IL2, IL4, IL6, and GM-CSF. Serum markers of tumor burden, including CCL3, CCL4, and other markers of inflammation (02M and CRP), were also being measured.

[2] = Phase I study, safety and adverse events; type: in vivo, human; conditions: for tolerability: patients with relapsed/refractory lymphoid malignancies
Procedure: A first-in-human study of cerdulatinib in patients with relapsed/refractory CLL/SLL or B-cell non-Hodgkin's lymphoma (NHL) was carried out. A 3+3 dose escalation study with 28-day cycles was carried out; the doses studied ranged from 15 mg to 65 mg once daily and up to 45 mg twice daily. Patients received a single dose on day 1 for 72 hour PK evaluation. Continuous dosing was initiated on day 4. 43 patients with CLL/SLL or B cell NHL were dosed. Median age was 67 years (range 23-85) and median prior therapies (tx) was 3 (range 1-8).
as §1

[3] = test system: anti-IgM induced signalling; assay: B cell receptor induced signalling in CLL cells, immunoblotting and flow cytometry; type: cell-based, human; conditions: pre-treatment
Procedure: Isolated CLL cells were cultured in RPMI-1640 with 15% fetal bovine serum (Gibco, Grand Island, N.Y., USA), penicillin (100 IU), and streptomycin (100 μg/mL), at a density of 1×10^7 cells/mL in the presence or absence of […] CpG, 100 ng/mL CD40L, 10 ng/mL IL-4. Anti-IgM stimulation was conducted with plate-bound anti-IgM (10 μg/mL). CLL cells were stimulated with 10 ng/mL IL-6 (R&D Systems, Minneapolis, Minn.), to detect the phosphorylation of JAK1/JAK2 (Cell Signaling Technology, Danvers, Mass.) and STAT3 (Cell Signaling Technology, Danvers, Mass., USA).

NFκB = assay: CD40L-induced NFκB activation in DLBCL cell lines; type: cell-based
From the text: Consistent with the loss of IκBα in RCK8, the cell line presented with enhanced basal NFκB activity. […] […] We then attempted to knock IκBα down in cerdulatinib-sensitive cell lines using siRNA to determine if resistance to SYK/JAK inhibition could be generated. […] Ligation of CD40 leads to a transient down-regulation of IκBα at the protein level. […] The impact on NFκB activation was much longer, however, and of 7 cerdulatinib-sensitive cell lines tested, 5 were made resistant by co-culture with CD40L. Associated with this resistance was not only induction of NFκB, but also pERK Y204, pAKT S473, and pSTAT3 Y705.

[4] = 15 mg/twice daily oral, Table 2, n=28
[5] = 15 mg/twice daily, Table 3, n=43
[6] = 20 mg/twice daily oral, Table 2, n=28
[7] = 20 mg/twice daily, Table 3, n=43
[8] = 45 mg/day oral, PK outlier removed, Table 2, n=28
[9] = 45 mg/twice daily, Table 3, n=43
[10] = 100 mg/day (one patient), Table 3
[11] = treatment emergent AEs ≥grade 3 deemed related to study

- SS Cave ([1]; 15 mg/day oral, Table 2, n=28): 190 nM
- SS Cave ([1]; 15 mg/day, Table 3, n=43): 190 nM
- SS Cmin ([1]; 15 mg/day, Table 3, n=43): 120 nM
- SS Cave [1, 4]: 390 nM
- SS Cave [1, 5]: 390 nM
- SS Cmin [1, 5]: 290 nM
- SS Cave [1, 6]: 520 nM
- SS Cave [1, 7]: 520 nM
- SS Cmin [1, 7]: 380 nM
- SS Cave ([1]; 30 mg/day oral, Table 2, n=28): 310 nM
- SS Cmin ([1]; 30 mg/day oral, Table 2, n=28): 210 nM
- SS Cave ([1]; 30 mg/day, Table 3, n=43): 310 nM
- SS Cmin ([1]; 30 mg/day, Table 3, n=43): 210 nM
- SS Cave ([1]; 40 mg/day oral, Table 2, n=28): 1140 nM
- SS Cmin ([1]; 40 mg/day oral, Table 2, n=28): 870 nM
- SS Cave ([1]; 40 mg/day, Table 3, n=43): 1140 nM
- SS Cmin ([1]; 40 mg/day, Table 3, n=43): 870 nM
- SS Cave [1, 8]: 1110 nM
- SS Cmin [1, 8]: 820 nM
- SS Cave ([1]; 45 mg/day, Table 3, n=43): 1110 nM
- SS Cmin ([1]; 45 mg/day, Table 3, n=43): 820 nM
- SS Cave [1, 9]: 1500 nM
- SS Cmin [1, 9]: 1480 nM
- SS Cave ([1]; 50 mg/day oral, Table 2, n=28): 1310 nM
- SS Cave ([1]; 50 mg/day, Table 3, n=43): 990 nM
- SS Cmin ([1]; 50 mg/day, Table 3, n=43): 790 nM
- SS Cave ([1]; 65 mg/day, Table 3, n=43): 1010 nM
- SS Cmin ([1]; 65 mg/day, Table 3, n=43): 760 nM
- SS Cave [1, 10]: 680 nM
- SS Cmin [1, 10]: 370 nM
- Cmax ([1]; oral, 15 mg/day, Table 3, n=43, read-out: SS Cmax): 380 nM
- Cmax ([1]; oral, 15 mg/twice daily, Table 3, n=43, read-out: SS Cmax): 530 nM
- Cmax ([1]; oral, 20 mg/twice daily, Table 3, n=43, read-out: SS Cmax): 890 nM
- Cmax ([1]; oral, 30 mg/day, Table 3, n=43, read-out: SS Cmax): 630 nM
- Cmax ([1]; oral, 40 mg/day, Table 3, n=43, read-out: SS Cmax): 1480 nM
- Cmax ([1]; oral, 45 mg, 45 mg BID, n=20, read-out: Cmax): 2160 ± 500 nM
- Cmax ([1]; oral, 45 mg/day, Table 3, n=43, read-out: SS Cmax): 1690 nM
- Cmax ([1]; oral, 45 mg/day, outlier removed from the group, read-out: steady state Cmax of PK outlier): 150 nM
- Cmax ([1]; oral, 45 mg/twice daily, Table 3, n=43, read-out: SS Cmax): 1800 nM
- Cmax ([1]; oral, 50 mg/day, Table 3, n=43, read-out: SS Cmax): 1570 nM
- Cmax ([1]; oral, 65 mg/day, Table 3, n=43, read-out: SS Cmax): 1670 nM
- Cmax ([1]; oral, 65 mg, read-out: steady state Cmax): ~2000 nM
- Cmax ([1]; oral, 100 mg/day, 100 mg/day (one patient), Table 3, read-out: SS Cmax): 1110 nM
- Cmax ([1]; oral, 40-100 mg QD doses, read-out: average steady state (SS) Cmax): 1630 ± 560 nM
- AUC ([1]; oral, 15 mg/day, Table 3, n=43): 4.5 ± 0.8 µM·h
- half-life ([1]; oral, 15 mg/day, Table 3, n=43, read-out: T1/2 (converted)): 11.5 h
- AUC ([1]; oral, 15 mg/twice daily, Table 3, n=43): 4.7 ± 1.3 µM·h
- half-life ([1]; oral, 15 mg/twice daily, Table 3, n=43, read-out: T1/2 (converted)): 11.2 h
- AUC ([1]; oral, 20 mg/twice daily, Table 3, n=43): 6.2 ± 1 µM·h
- half-life ([1]; oral, 20 mg/twice daily, Table 3, n=43, read-out: T1/2 (converted)): 8.4 h
- AUC ([1]; oral, 30 mg/day, Table 3, n=43): 7.5 ± 3 µM·h
- half-life ([1]; oral, 30 mg/day, Table 3, n=43, read-out: T1/2 (converted)): 12.3 h
- AUC ([1]; oral, 40 mg/day, Table 3, n=43): 27.3 ± 0.8 µM·h
- half-life ([1]; oral, 40 mg/day, Table 3, n=43, read-out: T1/2 (converted)): 32.8 h
- AUC ([1]; oral, 45 mg BID, n=20): 33.3 ± 15.9 µM·h
- half-life ([1]; oral, 45 mg BID, n=20, read-out: T1/2 (converted)): 27.5 ± 22.5 h
- AUC ([1]; oral, 45 mg/day, Table 3, n=43): 26.6 ± 13.9 µM·h
- half-life ([1]; oral, 45 mg/day, Table 3, n=43, read-out: T1/2 (converted)): 22.3 h
- AUC ([1]; oral, 50 mg/day, Table 3, n=43): 23.8 ± 14.9 µM·h
- half-life ([1]; oral, 50 mg/day, Table 3, n=43, read-out: T1/2 (converted)): 39 h
- AUC ([1]; oral, 65 mg/day, Table 3, n=43): 24.2 ± 0.7 µM·h
- half-life ([1]; oral, 65 mg/day, Table 3, n=43, read-out: T1/2 (converted)): 25.1 h
- AUC ([1]; oral, 100 mg/day (one patient), Table 3): 16.3 µM·h
- half-life ([1]; oral, 100 mg/day (one patient), Table 3, read-out: T1/2 (converted)): 14.4 h
- half-life ([1]; oral, once daily dosing, read-out: half-life): 12 to 16 h
- Cmax ([1]; po, 15 mg twice daily, 15 mg/twice daily oral, Table 2, n=28, read-out: SS Cmax): 530 nM
- Cmax ([1]; po, 15 mg/day, 15 mg/day oral, Table 2, n=28, read-out: SS Cmax): 380 nM
- Cmax ([1]; po, 20 mg twice daily, 20 mg/twice daily oral, Table 2, n=28, read-out: SS Cmax): 890 nM
- Cmax ([1]; po, 30 mg/day, 30 mg/day oral, Table 2, n=28, read-out: SS Cmax): 630 nM
- Cmax ([1]; po, 40 mg/day, 40 mg/day oral, Table 2, n=28, read-out: SS Cmax): 1480 nM
- Cmax ([1]; po, 45 mg/day, 45 mg/day oral, PK outlier removed, Table 2, n=28, read-out: SS Cmax): 1690 nM
- Cmax ([1]; po, 50 mg/day, 50 mg/day oral, Table 2, n=28, read-out: SS Cmax): 2070 nM
- steady-state Cmin to Cmax range ([1]; po, 65 mg, Patient 1, 65 mg PO QD): 730 to 1740 nM
- steady-state Cmin to Cmax range ([1]; po, Patient 2, 45 mg PO QD reduced to 30 mg): 250 to 630 nM
- AUC ([1]; 15 mg/day oral, Table 2, n=28): 4.5 µM·h
- half-life ([1]; 15 mg/day oral, Table 2, n=28, read-out: T1/2 (converted)): 11.5 h
- AUC [1, 4]: 4.7 µM·h
- half-life ([1]; 15 mg/twice daily oral, Table 2, n=28, read-out: T1/2 (converted)): 11.2 h
- AUC [1, 6]: 6.2 µM·h
- half-life ([1]; 20 mg/twice daily oral, Table 2, n=28, read-out: T1/2 (converted)): 8.4 h
- AUC ([1]; 30 mg/day oral, Table 2, n=28): 7.5 µM·h
- half-life ([1]; 30 mg/day oral, Table 2, n=28, read-out: T1/2 (converted)): 12.3 h
- AUC ([1]; 40 mg/day oral, Table 2, n=28): 27.3 µM·h
- half-life ([1]; 40 mg/day oral, Table 2, n=28, read-out: T1/2 (converted)): 32.8 h
- AUC [1, 8]: 26.6 µM·h
- half-life ([1]; 45 mg/day oral, PK outlier removed, Table 2, n=28, read-out: T1/2 (converted)): 22.3 h
- AUC ([1]; 50 mg/day oral, Table 2, n=28): 31.4 µM·h
- concentrations achievable in patients ([1]; in vivo): ~2200 nM
SMILES: CCS(=O)(=O)N1CCN(c2ccc(Nc3ncc(C(N)=O)c(NC4CC4)n3)cc2)CC1 [Cerdulatinib, 4-(cyclopropylamino)-2-(4-(4-(ethylsulfonyl)piperazin-1-yl)phenylamino)pyrimidine-5-carboxamide]
- IC50 (DLCL2): 5.4 µM
- IC50 (TOLEDO; Homo sapiens, TOLEDO cell line, read-out: IC50 of Kinase Inhibitor in Cell Titer Glo Assay): 6.9 µM
- response of cell line (TOLEDO; TOLEDO): resistant
- dose limiting toxicities ([2]; 45 mg BID, grade 3 pancreatitis and grade 3 fatigue): 2
- tolerability [2]: well-tolerated
- tolerability ([2]; listed as cerdulatinib): well tolerated
- patients with abdominal pain [2, 11]: 2
- patients with anemia [2, 11]: 3
- patients with fatigue [2, 11]: 5
- patients with neutropenia [2, 11]: 3
- patients with neutrophil count decrease [2, 11]: 2
- patients with pneumonia [2, 11]: 2
- soluble and immobilised anti-IgM induced signalling pathways [3]: able to inhibit
- CD40L-induced NFκB activation (NFκB): not inhibited
